Results reported in patent US20220348658A1, “ANTI-T CELL ANTIGEN-BINDING MOLECULE TO BE USED IN COMBINATION WITH CYTOKINE INHIBITOR” (Chugai Seiyaku Kabushiki Kaisha, priority 2019, published 2022).

Experiments:
[1] = test system: patients who manifested CRS after ERY974 administration; assay: ERY101EG study: use of Tocilizumab for the treatment of CRS; assay type: in vivo, human
Procedure: In the ERY101EG study, Tocilizumab was used alone or in combination with a steroid and such for the treatment of CRS in some patients at the discretion of the clinical trial investigator (Table 11). The severity of CRS ranged from Grade 1 to Grade 3. Tocilizumab was administered on the same day as the manifestation of CRS, with the exception of two patients, two cases (cohort 10A, 840010006, 840010007). In all of the Tocilizumab-administered cases, CRS recovered four days after the day of Tocilizumab administration.

[2] = Simulation of serum Tocilizumab concentration with population pharmacokinetic models (Frey et al.; Gibiansky et al.); settings: set from the Frey and Gibiansky models
Procedure: FIG. 5A is a simulation of changes in serum Tocilizumab concentration when Tocilizumab is administered at 8 mg/kg (intravenous administration: IV) on Day 0, based on the population pharmacokinetic model reported in the article by Frey et al. The vertical axis represents the serum Tocilizumab concentration (μg/mL), and the horizontal axis represents the number of days after administration of Tocilizumab.
FIG. 5B is a simulation of changes in serum Tocilizumab concentration when Tocilizumab is administered at 8 mg/kg (IV) on Day 0, based on the population pharmacokinetic model reported in the article by Gibiansky et al. The vertical axis represents the serum Tocilizumab concentration (μg/mL), and the horizontal axis represents the number of days after administration of Tocilizumab.
FIG. 6A is a simulation of changes in serum Tocilizumab concentration when Tocilizumab is intravenously administered (IV) at 8 mg/kg on Day 0, based on the population pharmacokinetic model reported in the article by Frey et al. The vertical axis represents the serum Tocilizumab concentration (μg/mL), and the horizontal axis represents the number of days after administration of Tocilizumab. […]

[3] = molecular target: T1, IL-6R (Homo sapiens, UniProt P08887); assay: Population pharmacokinetic model: Michaelis coefficient (Km) for target-mediated elimination of Tocilizumab; settings: theoretical, from the Km value of Frey et al.
T1 construct: host or cells: population pharmacokinetic models of patients (Frey et al. 2010; Gibiansky and Frey 2012)
T1 sequence (P08887 20-468): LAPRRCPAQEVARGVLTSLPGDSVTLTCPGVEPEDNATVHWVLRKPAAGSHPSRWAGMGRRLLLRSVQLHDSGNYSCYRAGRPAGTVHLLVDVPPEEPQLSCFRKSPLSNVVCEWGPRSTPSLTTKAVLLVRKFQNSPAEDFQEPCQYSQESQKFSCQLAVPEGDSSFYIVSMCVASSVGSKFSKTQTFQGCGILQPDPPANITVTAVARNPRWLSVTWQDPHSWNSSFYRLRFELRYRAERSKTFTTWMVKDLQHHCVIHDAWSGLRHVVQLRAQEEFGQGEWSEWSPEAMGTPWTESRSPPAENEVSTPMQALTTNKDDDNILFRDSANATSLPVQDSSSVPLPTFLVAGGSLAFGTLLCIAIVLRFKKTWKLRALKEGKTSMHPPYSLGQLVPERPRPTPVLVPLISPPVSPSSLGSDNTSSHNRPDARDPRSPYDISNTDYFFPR

[4] = molecular target: T1, IL-6R; settings: cited from earlier work

Question: For “Tocilizumab: humanized immunoglobulin G1 (IgG1) kappa anti-human IL-6R monoclonal antibody”, which “Recovery from CRS after the day of Tocilizumab administration” value ([1]; all Tocilizumab-administered cases, CRS Grade 1 to Grade 3, alone or with a steroid) is on record?
Answer: Its value is “four”.

Question: What about the “Duration from Tocilizumab administration to recovery from CRS” value (from here on “Duration from Tocilizumab administration”) ([1]; patient 840010006, cohort 10A, CRS Grade 3 after 2nd ERY974 (0.81 μg/kg), Tocilizumab 8 mg/kg, 3 days after CRS manifestation) of the same substance?
Answer: Its value is 4 days.

Question: And the “Duration from Tocilizumab administration” value ([1]; patient 840010006, cohort 10A, CRS Grade 3 after 3rd ERY974 (0.54 μg/kg), Tocilizumab 8 mg/kg, same day as CRS manifestation)?
Answer: The value was 3 days.

Question: What about the “Manifestation of CRS after Tocilizumab administration and until the next administration of this agent” value (“Manifestation of CRS” for short) ([1]; patient 840010006, cohort 10A, after 2nd ERY974 (0.81 μg/kg), Tocilizumab 8 mg/kg) of the same substance?
Answer: The value was “None”.

Question: And the “Presence or absence of CRS recurrence” value ([1]; patient 840010006, cohort 10A, 1 further ERY974 administration (0.54 μg/kg) after Tocilizumab 8 mg/kg)?
Answer: Its value is “Present”.

Question: What about the “Duration from Tocilizumab administration” value ([1]; patient 840010007, cohort 10A, CRS Grade 2, Tocilizumab 8 mg/kg, 6 days after CRS manifestation) of the same substance?
Answer: Its value is 1 days.

Question: And the “Presence or absence of CRS recurrence” value ([1]; patient 840010007, cohort 10A, 2 further ERY974 administrations (0.54, 0.81 μg/kg) after Tocilizumab 8 mg/kg)?
Answer: The value was “Absent”.

Question: And the “Manifestation of CRS” value ([1]; patient 840010007, cohort 10A, Tocilizumab 8 mg/kg)?
Answer: Its value is “None”.

Question: What about the “Duration from Tocilizumab administration” value ([1]; patient 840020017, cohort 8A, CRS Grade 2, Tocilizumab dose not known, same day as CRS manifestation) of the same substance?
Answer: Its value is 0 days.

Question: And the “Presence or absence of CRS recurrence” value ([1]; patient 840020017, cohort 8A, 3 further ERY974 administrations (0.36 μg/kg) after Tocilizumab)?
Answer: Its value is “Absent”.

Question: What about the “Manifestation of CRS” value ([1]; patient 840020017, cohort 8A, Tocilizumab dose not known) of the same substance?
Answer: The value was “None”.

Question: And the “Duration from Tocilizumab administration” value ([1]; patient 840020021, cohort 9A, CRS Grade 1, Tocilizumab 4 mg/kg, same day as CRS manifestation)?
Answer: The value was 0 days.

Question: What about the “Presence or absence of CRS recurrence” value ([1]; patient 840020021, cohort 9A, 9 further ERY974 administrations (0.54 μg/kg) after Tocilizumab 4 mg/kg) of the same substance?
Answer: Its value is “Absent”.

Question: And the “Manifestation of CRS” value ([1]; patient 840020021, cohort 9A, Tocilizumab 4 mg/kg)?
Answer: The value was “None”.

Question: What about the “Duration from Tocilizumab administration” value ([1]; patient 840020022, cohort 9A, CRS Grade 2, Tocilizumab 4 mg/kg, within 2 hours from CRS manifestation) of the same substance?
Answer: Its value is 0 days.

Question: And the “Presence or absence of CRS recurrence” value ([1]; patient 840020022, cohort 9A, 3 further ERY974 administrations (0.54 μg/kg) after Tocilizumab 4 mg/kg)?
Answer: Its value is “Absent”.

Question: What about the “Manifestation of CRS” value ([1]; patient 840020022, cohort 9A, Tocilizumab 4 mg/kg) of the same substance?
Answer: Its value is “None”.

Question: What about the “Duration from Tocilizumab administration” value ([1]; patient 840020023, cohort 9B, CRS Grade 2, Tocilizumab 4 mg/kg, same day as CRS manifestation) of the same substance?
Answer: Its value is 0 days.

Question: And the “Presence or absence of CRS recurrence” value ([1]; patient 840020023, cohort 9B, 19 further ERY974 administrations (0.54 μg/kg) after Tocilizumab 4 mg/kg)?
Answer: Its value is “Absent”.

Question: And the “Manifestation of CRS” value ([1]; patient 840020023, cohort 9B, Tocilizumab 4 mg/kg)?
Answer: The value was “None”.

Question: And the “Duration from Tocilizumab administration” value ([1]; patient 840060002, cohort 8B, CRS Grade 2, Tocilizumab 8 mg/kg, same day as CRS manifestation)?
Answer: The value was 2 days.

Question: What about the “Presence or absence of CRS recurrence” value ([1]; patient 840060002, cohort 8B, 9 further ERY974 administrations (0.36 μg/kg) after Tocilizumab 8 mg/kg) of the same substance?
Answer: The value was “Absent”.

Question: What about the “Manifestation of CRS” value ([1]; patient 840060002, cohort 8B, Tocilizumab 8 mg/kg) of the same substance?
Answer: The value was “None”.

Question: And the “Estimated effective serum concentration (target concentration) of Tocilizumab” value [2]?
Answer: Its value is 10 µg/mL.

Question: What about the “Serum concentration of Tocilizumab required for binding to 80% or more of IL-6R” value [3] of the same substance?
Answer: The value was at least 10800 ng/mL.

Question: And the “Michaelis coefficient (Km) for target-mediated elimination” value ([4]; article by Frey et al., patients with rheumatoid arthritis)?
Answer: The value was 2.7 µg/mL.

Question: And the “Michaelis coefficient (Km value)” value ([4]; article by Gibiansky et al.)?
Answer: The value was 0.367 µg/mL.
